From patent US10683334B2 (INDIANA UNIVERSITY RESEARCH AND TECHNOLOGY CORPORATION, priority 2016, dated 2020) come the findings set out here.

Square brackets hold non-standard residues; d marks the D form. Peptide text beside a SMILES is read from it. 3Pal = N[C@@H](Cc1cccnc1)C(=O)O; Aib = CC(C)(N)C(=O)O

One series in a line: physchem. To be noted: for solubility at 1 h: pH 7.4. The method, then:
1 or 5 mg of pre-lyophilized peptide in 2 mL Eppendorf tube was treated with 200-400 uL of phosphate buffer (PBS: 50 mM sodium phosphate, 150 mM of sodium chloride, pH7.4). Samples were then vortexed and sonicated for 10 min then equilibrated at RT for 1H, and then centrifuged at 10 krpms for 10 min Concentration of the peptides in obtained supernatant was determined by measuring UV absorbance at λ=280 nm. […] Concentration in aliquots was reassessed as previously with UV absorbance. Change in peptide concentration was evaluated after 48 h and 7 days of storage at 4° C.

For the next series, the target named is glucagon receptor (Homo sapiens, UniProt P47871). Briefly: Luciferase-based glucagon assay (cAMP reporter, HEK293 cells). To be noted: for EC50: read-out: EC50 [nM] (SDV), SDV in brackets; for EC50 / in vitro efficacy / potency (in words): luciferase-based glucagon assay; for % bioactivity of GCG: relative to native glucagon.
Sequence of glucagon receptor (P47871 26-477): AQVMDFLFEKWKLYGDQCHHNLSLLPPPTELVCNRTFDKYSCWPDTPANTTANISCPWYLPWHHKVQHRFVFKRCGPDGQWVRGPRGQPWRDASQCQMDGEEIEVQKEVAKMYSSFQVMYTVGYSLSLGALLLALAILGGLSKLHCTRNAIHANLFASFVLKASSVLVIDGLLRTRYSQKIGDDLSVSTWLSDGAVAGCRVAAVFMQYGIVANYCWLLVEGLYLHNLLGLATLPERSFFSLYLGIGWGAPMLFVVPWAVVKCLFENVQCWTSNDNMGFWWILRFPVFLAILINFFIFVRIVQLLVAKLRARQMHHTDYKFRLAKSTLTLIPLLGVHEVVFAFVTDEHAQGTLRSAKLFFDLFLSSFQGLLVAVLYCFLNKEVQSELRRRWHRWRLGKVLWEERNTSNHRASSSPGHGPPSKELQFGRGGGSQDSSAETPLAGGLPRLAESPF

Experimental for glucagon receptor: At the end of the incubation 100 microliters of LucLite luminescence substrate reagent (Perkin-Elmer, Wellesley, Mass.) were added to each well. […] The luminescent light output indicates activation of the luciferase reporter gene, which in turn is a measure of the activation of the receptor.

With `CSCC[C@H](NC(=O)[C@H](CC(C)C)NC(=O)[C@H](Cc1c[nH]c2ccccc12)NC(=O)[C@H](CCC(N)=O)NC(=O)[C@@H](NC(=O)[C@H](Cc1ccccc1)NC(=O)[C@H](CC(=O)O)NC(=O)[C@H](CCC(N)=O)NC(=O)[C@H](C)NC(=O)[C@H](CCCNC(=N)N)NC(=O)[C@H](CCCNC(=N)N)NC(=O)C(C)(C)NC(=O)[C@H](CC(=O)O)NC(=O)[C@H](CC(C)C)NC(=O)[C@H](Cc1ccncc1)NC(=O)[C@H](CCCCN)NC(=O)[C@H](CO)NC(=O)[C@H](Cc1ccc(O)cc1)NC(=O)[C@H](CC(=O)O)NC(=O)[C@H](CO)NC(=O)[C@@H](NC(=O)[C@H](Cc1ccccc1)NC(=O)[C@@H](NC(=O)CNC(=O)[C@H](CCC(N)=O)NC(=O)[C@H](CO)NC(=O)[C@@H](N)Cc1c[nH]cn1)[C@@H](C)O)[C@@H](C)O)C(C)C)C(=O)N[C@@H](CC(N)=O)C(=O)N[C@H](C(=O)O)[C@@H](C)O` [Compound 6, HSQGTFTSDYSKULDZRRAQDFVQWLMNT], the solubility at 1 h in the series “physchem” was more than 1000 µg/mL. Also, at glucagon receptor, the EC50 is 0.0339 nM and the “% bioactivity of GCG” value was 60%.
In “physchem”, `CSCC[C@H](NC(=O)[C@H](CC(C)C)NC(=O)[C@H](Cc1c[nH]c2ccccc12)NC(=O)[C@H](CCC(N)=O)NC(=O)[C@@H](NC(=O)[C@H](Cc1cccnc1)NC(=O)[C@H](CC(=O)O)NC(=O)[C@H](CCC(N)=O)NC(=O)[C@H](C)NC(=O)[C@H](CCCNC(=N)N)NC(=O)[C@H](CCCNC(=N)N)NC(=O)C(C)(C)NC(=O)[C@H](CC(=O)O)NC(=O)[C@H](CC(C)C)NC(=O)[C@H](Cc1cccnc1)NC(=O)[C@H](CCCCN)NC(=O)[C@H](CO)NC(=O)[C@H](Cc1cccnc1)NC(=O)[C@H](CC(=O)O)NC(=O)[C@H](CO)NC(=O)[C@@H](NC(=O)[C@H](Cc1cccnc1)NC(=O)[C@@H](NC(=O)CNC(=O)[C@H](CCC(N)=O)NC(=O)[C@H](CO)NC(=O)[C@@H](N)Cc1cnc[nH]1)[C@@H](C)O)[C@@H](C)O)C(C)C)C(=O)N[C@@H](CC(N)=O)C(=O)N[C@H](C(=O)O)[C@@H](C)O` [Compound 11, HSQGTXTSDXSKXLDZRRAQDXVQWLMNT] (H-HSQGT[3Pal]TSD[3Pal]SK[3Pal]LD[Aib]RRAQD[3Pal]VQWLMNT-OH) came in with a solubility at 1 h of more than 10000 µg/mL.
In the series “physchem”, `CSCC[C@H](NC(=O)[C@H](CC(C)C)NC(=O)[C@H](Cc1c[nH]c2ccccc12)NC(=O)[C@H](CCC(N)=O)NC(=O)[C@@H](NC(=O)[C@H](Cc1ccccc1)NC(=O)[C@H](CC(=O)O)NC(=O)[C@H](CCC(N)=O)NC(=O)[C@H](C)NC(=O)[C@H](CCCNC(=N)N)NC(=O)[C@H](CCCNC(=N)N)NC(=O)C(C)(C)NC(=O)[C@H](CC(=O)O)NC(=O)[C@H](CC(C)C)NC(=O)[C@H](Cc1ccncc1)NC(=O)[C@H](CCCCN)NC(=O)[C@H](CO)NC(=O)[C@H](Cc1ccncc1)NC(=O)[C@H](CC(=O)O)NC(=O)[C@H](CO)NC(=O)[C@@H](NC(=O)[C@H](Cc1ccccc1)NC(=O)[C@@H](NC(=O)CNC(=O)[C@H](CCC(N)=O)NC(=O)[C@H](CO)NC(=O)[C@@H](N)Cc1c[nH]cn1)[C@@H](C)O)[C@@H](C)O)C(C)C)C(=O)N[C@@H](CC(N)=O)C(=O)N[C@H](C(=O)O)[C@@H](C)O` [Compound 8, HSQGTFTSDUSKULDZRRAQDFVQWLMNT] showed a solubility at 1 h of more than 10000 µg/mL. Further, on glucagon receptor, the EC50 was determined as 0.0309 nM and the “% bioactivity of GCG” value is 66%.
The like results for `CSCC[C@H](NC(=O)[C@H](CC(C)C)NC(=O)[C@H](Cc1c[nH]c2ccccc12)NC(=O)[C@H](CCC(N)=O)NC(=O)[C@@H](NC(=O)[C@H](Cc1ccccc1)NC(=O)[C@H](CC(=O)O)NC(=O)[C@H](CCC(N)=O)NC(=O)[C@H](C)NC(=O)[C@H](CCCNC(=N)N)NC(=O)[C@H](CCCNC(=N)N)NC(=O)C(C)(C)NC(=O)[C@H](CC(=O)O)NC(=O)[C@H](CC(C)C)NC(=O)[C@H](Cc1ccc(O)cc1)NC(=O)[C@H](CCCCN)NC(=O)[C@H](CO)NC(=O)[C@H](Cc1cccnc1)NC(=O)[C@H](CC(=O)O)NC(=O)[C@H](CO)NC(=O)[C@@H](NC(=O)[C@H](Cc1ccccc1)NC(=O)[C@@H](NC(=O)CNC(=O)[C@H](CCC(N)=O)NC(=O)[C@H](CO)NC(=O)[C@@H](N)Cc1c[nH]cn1)[C@@H](C)O)[C@@H](C)O)C(C)C)C(=O)N[C@@H](CC(N)=O)C(=O)N[C@H](C(=O)O)[C@@H](C)O` [Compound 4, HSQGTFTSDXSKYLDZRRAQDFVQWLMNT] were, in that order, more than 1000 µg/mL, 0.0268 nM and 76%.
`CSCC[C@H](NC(=O)[C@H](CC(C)C)NC(=O)[C@H](Cc1c[nH]c2ccccc12)NC(=O)[C@H](CCC(N)=O)NC(=O)[C@@H](NC(=O)[C@H](Cc1ccccc1)NC(=O)[C@H](CC(=O)O)NC(=O)[C@H](CCC(N)=O)NC(=O)[C@H](C)NC(=O)[C@H](CCCNC(=N)N)NC(=O)[C@H](CCCNC(=N)N)NC(=O)C(C)(C)NC(=O)[C@H](CC(=O)O)NC(=O)[C@H](CC(C)C)NC(=O)[C@H](Cc1cccnc1)NC(=O)[C@H](CCCCN)NC(=O)[C@H](CO)NC(=O)[C@H](Cc1cccnc1)NC(=O)[C@H](CC(=O)O)NC(=O)[C@H](CO)NC(=O)[C@@H](NC(=O)[C@H](Cc1ccccc1)NC(=O)[C@@H](NC(=O)CNC(=O)[C@H](CCC(N)=O)NC(=O)[C@H](CO)NC(=O)[C@@H](N)Cc1c[nH]cn1)[C@@H](C)O)[C@@H](C)O)C(C)C)C(=O)N[C@@H](CC(N)=O)C(=O)N[C@H](C(=O)O)[C@@H](C)O` [Compound 7, HSQGTFTSDXSKXLDZRRAQDFVQWLMNT] showed a solubility in the series “physchem” (pH 7) of more than 10000 µg/mL. In the series “physchem”, this molecule showed a solubility at 1 h of more than 10000 µg/mL. Moreover, on glucagon receptor, the “in vitro efficacy / potency (in words)” value is recorded as “fully potent”, the EC50 turned out to be 0.0359 nM and the “% bioactivity of GCG” value turned out to be 57%.
Regarding `CSCC[C@H](NC(=O)[C@H](CC(C)C)NC(=O)[C@H](Cc1c[nH]c2ccccc12)NC(=O)[C@H](CCC(N)=O)NC(=O)[C@@H](NC(=O)[C@H](Cc1ccccc1)NC(=O)[C@H](CC(=O)O)NC(=O)[C@H](CCC(N)=O)NC(=O)[C@H](C)NC(=O)[C@H](CCCNC(=N)N)NC(=O)[C@H](CCCNC(=N)N)NC(=O)C(C)(C)NC(=O)[C@H](CC(=O)O)NC(=O)[C@H](CC(C)C)NC(=O)[C@H](Cc1cccnc1)NC(=O)[C@H](CCCCN)NC(=O)[C@H](CO)NC(=O)[C@H](Cc1ccc(O)cc1)NC(=O)[C@H](CC(=O)O)NC(=O)[C@H](CO)NC(=O)[C@@H](NC(=O)[C@H](Cc1ccccc1)NC(=O)[C@@H](NC(=O)CNC(=O)[C@H](CCC(N)=O)NC(=O)[C@H](CO)NC(=O)[C@@H](N)Cc1c[nH]cn1)[C@@H](C)O)[C@@H](C)O)C(C)C)C(=O)N[C@@H](CC(N)=O)C(=O)N[C@H](C(=O)O)[C@@H](C)O` [Compound 5, HSQGTFTSDYSKXLDZRRAQDFVQWLMNT], in the series “physchem”, the solubility at 1 h was more than 1000 µg/mL. In addition, at glucagon receptor, the EC50 was 0.0379 nM and the “% bioactivity of GCG” value is reported as 54%.
For `CSCC[C@H](NC(=O)[C@H](CC(C)C)NC(=O)[C@H](Cc1c[nH]c2ccccc12)NC(=O)[C@H](CCC(N)=O)NC(=O)[C@@H](NC(=O)[C@H](Cc1ccccc1)NC(=O)[C@H](CC(=O)O)NC(=O)[C@H](CCC(N)=O)NC(=O)[C@H](C)NC(=O)[C@H](CCCNC(=N)N)NC(=O)[C@H](CCCNC(=N)N)NC(=O)C(C)(C)NC(=O)[C@H](CC(=O)O)NC(=O)[C@H](CC(C)C)NC(=O)[C@H](Cc1ccncc1)NC(=O)[C@H](CCCCN)NC(=O)[C@H](CO)NC(=O)[C@H](Cc1ccncc1)NC(=O)[C@H](CC(=O)O)NC(=O)[C@H](CO)NC(=O)[C@@H](NC(=O)[C@H](Cc1ccncc1)NC(=O)[C@@H](NC(=O)CNC(=O)[C@H](CCC(N)=O)NC(=O)[C@H](CO)NC(=O)[C@@H](N)Cc1c[nH]cn1)[C@@H](C)O)[C@@H](C)O)C(C)C)C(=O)N[C@@H](CC(N)=O)C(=O)N[C@H](C(=O)O)[C@@H](C)O` [Compound 10, HSQGTUTSDUSKULDZRRAQDFVQWLMNT], in that order: more than 10000 µg/mL, 0.0843 nM and 24%.
In the case of `CSCC[C@H](NC(=O)[C@H](CC(C)C)NC(=O)[C@H](Cc1c[nH]c2ccccc12)NC(=O)[C@H](CCC(N)=O)NC(=O)[C@@H](NC(=O)[C@H](Cc1cccnc1)NC(=O)[C@H](CC(=O)O)NC(=O)[C@H](CCC(N)=O)NC(=O)[C@H](C)NC(=O)[C@H](CCCNC(=N)N)NC(=O)[C@H](CCCNC(=N)N)NC(=O)C(C)(C)NC(=O)[C@H](CC(=O)O)NC(=O)[C@H](CC(C)C)NC(=O)[C@H](Cc1cccnc1)NC(=O)[C@H](CCCCN)NC(=O)[C@H](CO)NC(=O)[C@H](Cc1cccnc1)NC(=O)[C@H](CC(=O)O)NC(=O)[C@H](CO)NC(=O)[C@@H](NC(=O)[C@H](Cc1cccnc1)NC(=O)[C@@H](NC(=O)CNC(=O)[C@H](CCC(N)=O)NC(=O)[C@H](CO)NC(=O)[C@@H](N)Cc1c[nH]cn1)[C@@H](C)O)[C@@H](C)O)C(C)C)C(=O)N[C@@H](CC(N)=O)C(=O)N[C@H](C(=O)O)[C@@H](C)O` [Compound 11, HSQGTXTSDXSKXLDZRRAQDXVQWLMNT] (H-HSQGT[3Pal]TSD[3Pal]SK[3Pal]LD[Aib]RRAQD[3Pal]VQWLMNT-OH; N-terminus and C-terminus assumed), on glucagon receptor, the “in vitro efficacy / potency (in words)” value was “lower potency”, the EC50 was determined as 2.33 nM and the “% bioactivity of GCG” value was found to be 1%.

In general, solubility refers to the dissolved amount per volume that the medium holds. Low values mean a poorly soluble substance, high ones a readily soluble substance. The EC50 is the concentration that produces a half-maximal response.
